# Measurements published in US7253295B2, “Chloride channel opener” (Sucampo AG, priority 2001, dated 2007).
# Test system: AS-HBE cells
# Assay: Short-circuit current in AS-HBE cells (Test Example 3)
# Format: cell-based, human
# Settings: 250 nM
# Procedure: AS-HBE is a human bronchial epithelial (HBE) cell line expressing the first 131 nucleotides of CFTR in the antisense direction (antisense CFTR 16HBE14o- cells, HBE-AS; also called AS-HBE). As a result, AS-HBE cells lack CFTR transcripts and lack functional CFTR. However, AS-HBE cells do express functional ClC-2 in a manner identical to the parental cell line, 16HBE14o- cells, from which they were derived. AS-HBE cells were maintained at 37° C. in 5%/95% CO2/O2 in Minimal Essential Medium (MEM; GIBCO/Invitrogen, Carlsbad, Calif.) supplemented with Earl's salt, L-glutamine (GIBCO/Invitrogen), 10% heat-inactivated fetal bovine serum, 100 units/ml penicillin, 100 μg/ml streptomycin sulfate and 400 μg/ml G-418 (GIBCO/Invitrogen). The cells were grown in air-liquid interface on Biocoat inserts (Fisher Scientific, Chicago, Ill.), coated with human plasma fibronectine (GIBCO/Invitrogen) and vitrogen (Cohesion Technologies, Palo Alto, Calif.).
# According to the same manner as described in Example 2, Short-circuit current measurements in the AS-HBE cells were carried out. Changes in short-circuit current (ΔIsc) were normalized to the filter area (0.3 cm^2) and reported as ΔIsc/cm^2.
# Test compounds were used at a final concentration of 250 nM.
row,SMILES,Changes in short-circuit currents (Δlsc)
1,"CCCCC(F)(F)C1(O)CC[C@H]2[C@@H](CC(=O)[C@@H]2CCCCCCC(=O)NCC)O1 (stereo partly drawn) [Compound 3, N1-ethyl-7-[(2,4aR,5R,7aR)-2-(1,1-difluoropentyl)-2-hydroxy-6-oxoperhydrocyclopenta[b]pyran-5-yl]heptanamide]",2.7 μA/cm^2
2,"CCCCC(F)(F)C(=O)/C=C/[C@H]1[C@H](O)CC(=O)[C@@H]1CCCCCCC(=O)O [Compound 4, 15-keto-16,16-difluoro-PGE1]",1.0 μA/cm^2
3,"CCCCCCC(F)(F)C1(O)CC[C@H]2[C@@H](CC(=O)[C@@H]2CCCCCCCCC(=O)OC(C)C)O1 (stereo partly drawn) [Compound 5, Isopropyl (−)-9-[(4aR,5R,7aR)-2-(1,1-difluoroheptyl)-2-hydroxy-6-oxoperhydrocyclopenta[b]pyran-5-yl]nonanoate]",0.3 μA/cm^2
4,"CCCCC[C@H](O)/C=C/[C@@H]1[C@@H](C/C=C\CCCC(=O)O)[C@@H](O)C[C@H]1O [Compound 6, PGF2α, reference compound]",0.7 μA/cm^2
5,"CCCCC[C@H](O)/C=C/[C@@H]1[C@H]2C/C(=C/CCCC(=O)[O-])O[C@H]2C[C@H]1O.[Na+] [Compound 7, PGI2-Na, reference compound]",1.0 μA/cm^2

# Target: T1, recombinant human ClC-2 Chloride Channels (Homo sapiens, UniProt P51788)
# T1 construct: His; T7; expressed in transfected cells; host or cells: HEK-293 (ATCC), pcDNA3.1, G-418 selected
# T1 sequence (P51788 1-898): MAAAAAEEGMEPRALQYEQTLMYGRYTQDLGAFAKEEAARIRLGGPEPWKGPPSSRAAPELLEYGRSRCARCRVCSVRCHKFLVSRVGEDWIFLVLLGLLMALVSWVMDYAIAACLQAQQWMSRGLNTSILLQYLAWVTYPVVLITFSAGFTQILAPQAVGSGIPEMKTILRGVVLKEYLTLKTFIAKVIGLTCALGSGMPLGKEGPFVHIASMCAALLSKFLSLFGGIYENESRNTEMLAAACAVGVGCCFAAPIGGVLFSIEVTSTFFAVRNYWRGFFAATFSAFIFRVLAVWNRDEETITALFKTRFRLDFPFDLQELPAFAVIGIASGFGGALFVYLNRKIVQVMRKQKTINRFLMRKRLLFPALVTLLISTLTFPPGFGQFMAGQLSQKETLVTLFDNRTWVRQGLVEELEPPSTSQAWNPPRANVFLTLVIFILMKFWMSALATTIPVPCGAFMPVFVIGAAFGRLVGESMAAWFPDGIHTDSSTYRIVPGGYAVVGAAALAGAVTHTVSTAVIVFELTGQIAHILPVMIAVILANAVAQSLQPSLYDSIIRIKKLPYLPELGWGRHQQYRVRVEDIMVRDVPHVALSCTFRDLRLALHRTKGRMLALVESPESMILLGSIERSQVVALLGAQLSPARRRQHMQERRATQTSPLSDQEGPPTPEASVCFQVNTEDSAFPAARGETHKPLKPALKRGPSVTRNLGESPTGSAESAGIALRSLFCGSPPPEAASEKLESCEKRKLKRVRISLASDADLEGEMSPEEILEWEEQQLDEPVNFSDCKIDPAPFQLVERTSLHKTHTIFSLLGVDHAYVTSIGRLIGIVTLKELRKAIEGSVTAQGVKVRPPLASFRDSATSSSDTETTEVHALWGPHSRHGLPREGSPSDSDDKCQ
# Assay: Whole cell patch clamp, ClC-2 transfected HEK cells, current increase (Test Example 4)
# Format: cell-based
# Settings: 100 nM, change from control
# Procedure: According to the same manner as described in Example 1, whole cell patch clamp measurements were carried out.
# Test compounds were used at a final concentration of 100 nM.
row,SMILES,Activation of ClC-2 channels ΔpA/pF
1,"CCCCC(F)(F)C(O)CC[C@H]1[C@H](O)CC(=O)[C@@H]1CCCCCCC(=O)O (stereo partly shown) [Compound 8, 13,14-dihydro-16,16-difluoro-PGE1]",24.6 pA/pF
2,"CCCCC(F)(F)C1(O)CC[C@@H]2[C@@H](CCCCCCC(=O)NCC)[C@@H](O)C[C@H]2O1 (stereo partly drawn) [Compound 9, N1-ethyl-7-[(2,4aR,5R,6S,7aR)-2-(1,1-difluoropentyl)-2,6-dihydroxyperhydrocyclopenta[b]pyran-5-yl]heptanamide]",38.2 pA/pF
